According to patent US9861606B2, “Therapeutic for treating inflammatory lung disorders” (University College Cardiff Consultants Limited, priority 2012, dated 2018):

Columns and labels:
BalbC mice [1] = assay: Bronchial hyper-reactivity in ovalbumin-sensitised, ovalbumin-challenged mouse model of asthma; assay type: in vivo; conditions: nebulised 3 μM; methacholine up to and including 30 mg/ml
Experimental: FIG. 13. The calcilytic, NPS89636, prevents ovalbumin-induced BHR in methacholine challenged mice. Mice were sensitised on days 0 and 5 by an i.p. injection of 100 microgram/mouse of ovalbumin (OVA) and 50 mg/mouse aluminium hydroxide in PBS. Fourteen days after the last injection, mice were challenged by inhalation of a 0.5% OVA aerosol in PBS twice on the same day, 4 h apart. Mice were treated with nebulised NPS89636 (3 micromolar) or vehicle (0.3% DMSO) one hour before and three hours after the last OVA exposure. Measurements of BHR following methacholine challenge were taken by plethysmography 24 hours before and after the last OVA inhalation challenge.
Penh was recorded by plethysmography during methacholine challenge, as above (Penh before treatment). 24 hours later, the mice were challenged with 0.5% nebulised OVA (in PBS w/v) in the absence or presence of nebulised NPS89636 (or 0.3% DMSO vehicle) by inhalation. The time-course of this challenge protocol consisted of: […]
Male BalbC mice (˜25 g) purchased from Harlan and allowed to acclimatise for 1 week prior to experiment. […] Thirteen days after the last injection, Penh was recorded by plethysmography during methacholine challenge, as described above (Penh before treatment). […]
Bronchoalveolar lavage was performed using three times 1 ml of PBS and the BALF was collected for the quantification of inflammatory cells. […]

BalbC mice [2] = assay: Polycation-induced bronchial hyper-reactivity (Penh, plethysmography) in methacholine-challenged conscious mice; assay type: in vivo, mouse; conditions: nebulised 3 μM; poly-L-arginine 3 μM; methacholine challenge
Experimental: FIG. 5. […] prevent polycation-evoked BHR in methacholine-challenged mice. […] After the treatment, animals were placed in plethysmography chambers (Buxco, USA), allowed to settle for 10 minutes, and then they were challenged with methacholine (MCh, 0.1-10 mg/ml). Responses to methacholine obtained from the animals that have not received any treatments are shown in black symbols. From our previous estimates, 1-5% of the nebulised drug reaches the lung epithelium. […] FIG. 12. […] Male BalbC mice ( 25 g) were purchased from Harlan 1 week before the experimental protocols were performed. […] On the day of the experiment, the body weight of each mouse was recorded and mice were allowed to acclimatise to the chamber for at least 10 min before recordings were made. Then, respiratory activity was recorded for 5 min, to establish baseline value for Penh. […] Data were recorded for 3 minutes after each aerosol administration. The Penh values at each MCh concentration were averaged and expressed as a proportion of baseline Penh (Penh before treatment). […] The Penh values at each MCh concentration were averaged and expressed as a proportion of that day's baseline Penh (Penh after treatment). […] Effect of Polycations and of the Calcilytic NPS89636 on Bronchial Hyper-Reactivity in Unrestrained, Conscious Mice In Vivo Baseline airway hyper-responsiveness was measured by plethysmography. […]

With CCc1ccc(CC(C)(C)NCC(O)COc2cc(-c3ccc(C(=O)O)cc3)ccc2C#N)c(F)c1.Cl (stereo in doubt) [NPS89636, (S)-4′-cyano-3′-[3-[2-(4-ethyl-2-fluorophenyl)-1,1-dimethylethylamino]-2-hydroxy-propoxy]-biphenyl-4-carboxylic acid hydrochloride] the “Effect on methacholine-induced BHR in OVA-sensitised, OVA-challenged mice” value (BalbC mice [1]) was “completely abolished” and the “Effect on poly-L-arginine-induced increase in airway reactivity (Penh)” value (BalbC mice [2]) was “completely prevented”.
